# Results taken from BindingDB's records for doi:10.1016/s0960-894x(00)00113-x (Kyoto University, 2000).
# Test: The compound was tested for its inhibitory activity against platelet aggregation
row,IC50,Structure (SMILES)
1,6460 nM,CN(CCC(=O)N1CCC(CC(=O)O)CC1)C(=O)c1ccc(C(=N)N)cc1
2,79 nM,CC(C)(C(=O)N1CCC(CC(=O)O)CC1)[C@@H](CCc1ccccc1)NC(=O)c1ccc(C(=N)N)cc1
3,708000 nM,C[C@H](NC(=O)c1ccc(CNC(=N)N)cc1)C(=O)N1CCC(C(=O)O)CC1
4,115 nM,CC(C)(C(=O)N1CCC(CC(=O)O)CC1)[C@H](NC(=O)c1ccc(C(=N)N)cc1)c1ccccc1
5,100000 nM,CN(CC(=O)N1CCC(C(=O)O)CC1)C(=O)c1ccc(N=C(N)N)cc1
6,41 nM,CCC[C@@H](NC(=O)c1ccc(C(=N)N)cc1)C(C)(C)C(=O)N1CCC(CC(=O)O)CC1
7,501 nM,CCCCNC(=N)c1ccc(C(=O)N[C@H](CC)C(C)(C)C(=O)N2CCC(CC(=O)O)CC2)c(F)c1
8,79 nM,CC[C@@H](NC(=O)c1ccc(C(=N)N2CCOCC2)cc1F)C(C)(C)C(=O)N1CCC(CC(=O)O)CC1
9,52500 nM,CN(CC(=O)N1CCC(C(=O)O)CC1)C(=O)c1ccc(CNC(=N)N)cc1
10,126 nM,CC(C)(C(=O)N1CCC(CC(=O)O)CC1)[C@H](NC(=O)c1ccc(C(=N)N)cc1)c1cccc(Cl)c1
11,759000 nM,NC(N)=Nc1ccc(C(=O)NCCC(=O)N2CCC(C(=O)O)CC2)cc1
12,331 nM,CC(C)(C(=O)N1CCC(CC(=O)O)CC1)[C@H](NC(=O)c1ccc(C(=N)N)cc1)c1ccc(Cl)cc1
13,85 nM,C/C=C/[C@@H](NC(=O)c1ccc(C(=N)N)cc1)C(C)(C)C(=O)N1CCC(CC(=O)O)CC1
14,575 nM,"CC(C)(CNC(=O)c1ccc(C(=N)N)cc1)C(=O)N1CCC(CC(=O)O)CC1 [{1-[3-(4-Carbamimidoyl-benzoylamino)-2,2-dimethyl-propionyl]-piperidin-4-yl}-acetic acid]"
15,110 nM,CC(C)(C(=O)N1CCC(CC(=O)O)CC1)[C@H](NC(=O)c1ccc(C(=N)N)cc1)c1ccc(O)cc1
16,129 nM,CCOC(/C=C/c1ccc(C(=N)N)cc1)C(C)(C)C(=O)N1CCC(CC(=O)O)CC1 (stereo unspecified)
17,45 nM,CC[C@@H](NC(=O)c1ccc(C(=N)N2CCCC2)cc1F)C(C)(C)C(=O)N1CCC(CC(=O)O)CC1
18,5010 nM,C[C@@H](CC(=O)N1CCC(CC(=O)O)CC1)NC(=O)c1ccc(C(=N)N)cc1
19,37 nM,CCCC[C@@H](NC(=O)c1ccc(C(=N)N)cc1F)C(C)(C)C(=O)N1CCC(CC(=O)O)CC1

row,IC50,Structure (SMILES)
1,5250 nM,N=C(N)c1ccc(C(=O)N[C@H](CC(=O)N2CCC(CC(=O)O)CC2)c2ccccc2)cc1
2,43 nM,CC[C@@H](NC(=O)c1ccc(C(=N)N)cc1)C(C)(C)C(=O)N1CCC(CC(=O)O)CC1
3,79 nM,CCCCC[C@@H](NC(=O)c1ccc(C(=N)N)cc1)C(C)(C)C(=O)N1CCC(CC(=O)O)CC1
4,209 nM,"CC(C)(/C=C/C(=O)c1ccc(C(=N)N)cc1)C(=O)N1CCC(CC(=O)O)CC1 [{1-[(E)-5-(4-Carbamimidoyl-phenyl)-2,2-dimethyl-5-oxo-pent-3-enoyl]-piperidin-4-yl}-acetic acid]"
5,31 nM,CC[C@@H](NC(=O)c1ccc(C(=N)N)cc1F)C(C)(C)C(=O)N1CCC(CC(=O)O)CC1
6,18200 nM,N=C(N)c1ccc(C(=O)NCCC(=O)N2CCC(COC(=O)O)CC2)cc1
7,41 nM,CC(C)C[C@@H](NC(=O)c1ccc(C(=N)N)cc1)C(C)(C)C(=O)N1CCC(CC(=O)O)CC1
8,36 nM,CC[C@@H](NC(=O)c1ccc(C(=N)N2CCN(C)CC2)cc1F)C(C)(C)C(=O)N1CCC(CC(=O)O)CC1
9,363 nM,CC(C)(C(=O)N1CCC(CC(=O)O)CC1)C(/C=C/c1ccc(C(=N)N)cc1)OCc1ccccc1 (stereo unspecified)
10,4070 nM,N=C(N)c1ccc(C(=O)N[C@@H](CC(=O)N2CCC(CC(=O)O)CC2)C(=O)Oc2ccccc2)cc1
11,3470 nM,CC(C)(C(=O)/C=C/c1ccc(C(=N)N)cc1)C(=O)N1CCC(CC(=O)O)CC1
12,41 nM,C[C@@H](NC(=O)c1ccc(C(=N)N)cc1)C(C)(C)C(=O)N1CCC(CC(=O)O)CC1
13,191 nM,CC(C)(C(=O)N1CCC(CC(=O)O)CC1)[C@H](NC(=O)c1ccc(C(=N)N)cc1)c1ccc2ccccc2c1
14,110000 nM,C[C@H](NC(=O)c1ccc(C(=N)N)cc1)C(=O)N1CCC(C(=O)O)CC1
15,135 nM,C=CCOC(/C=C/c1ccc(C(=N)N)cc1)C(C)(C)C(=O)N1CCC(CC(=O)O)CC1 (stereo unspecified)
16,331000 nM,COC(=O)C1CCN(C(=O)CN(C)C(=O)c2ccc(C(=N)N)cc2)CC1
17,151 nM,CN(C(=O)c1ccc(C(=N)N)cc1)[C@H](c1ccccc1)C(C)(C)C(=O)N1CCC(CC(=O)O)CC1
18,186 nM,CC(C)(C(=O)N1CCC(CC(=O)O)CC1)[C@H](NC(=O)c1ccc(C(=N)N)cc1Cl)c1ccccc1
19,126 nM,COC(/C=C/c1ccc(C(=N)N)cc1)C(C)(C)C(=O)N1CCC(CC(=O)O)CC1 (stereo unspecified)

row,IC50,Structure (SMILES)
1,40 nM,CC[C@@H](NC(=O)c1ccc(C(=N)N2CCN(c3ccc(F)cc3)CC2)cc1F)C(C)(C)C(=O)N1CCC(CC(=O)O)CC1
2,302 nM,CC(C)(C(=O)N1CCC(CC(=O)O)CC1)C(O)/C=C/c1ccc(C(=N)N)cc1 (stereo unspecified)
3,76 nM,CC(C)[C@@H](NC(=O)c1ccc(C(=N)N)cc1)C(C)(C)C(=O)N1CCC(CC(=O)O)CC1
4,240 nM,COC(CCc1ccc(C(=N)N)cc1)C(C)(C)C(=O)N1CCC(CC(=O)O)CC1 (stereo unspecified)
5,7590 nM,CN(CC(=O)N1CCC(CC(=O)O)CC1)C(=O)c1ccc(C(=N)N)cc1
6,794 nM,CCCCCCOC(/C=C/c1ccc(C(=N)N)cc1)C(C)(C)C(=O)N1CCC(CC(=O)O)CC1 (stereo unspecified)
7,30200 nM,C[C@H](NC(=O)c1ccc(C(=N)N)cc1)C(=O)N1CCC(CC(=O)O)CC1
8,759000 nM,CN(CC(=O)N1CCC(CC(=O)O)CC1)C(=O)c1ccc(N=C(N)N)cc1
9,41 nM,CCCC[C@@H](NC(=O)c1ccc(C(=N)N)cc1)C(C)(C)C(=O)N1CCC(CC(=O)O)CC1
10,9120 nM,CC(C)[C@@H](CC(=O)N1CCC(CC(=O)O)CC1)NC(=O)c1ccc(C(=N)N)cc1
11,1900 nM,N=C(N)c1ccc(C(=O)N[C@@H](CC(=O)N2CCC(CC(=O)O)CC2)C(=O)OC2CCCCC2)cc1
12,708 nM,C#CCN(C(=O)c1ccc(C(=N)N)cc1)[C@H](CCCC)C(C)(C)C(=O)N1CCC(CC(=O)O)CC1
13,24 nM,CC[C@@H](NC(=O)c1ccc(C(=N)N2CCC(O)CC2)cc1F)C(C)(C)C(=O)N1CCC(CC(=O)O)CC1
14,22 nM,CC[C@@H](NC(=O)c1ccc(C(=N)N2CCSC2)cc1F)C(C)(C)C(=O)N1CCC(CC(=O)O)CC1
15,33100 nM,N=C(N)c1ccc(C(=O)NCCC(=O)N2CCC(C(=O)O)CC2)cc1
16,631 nM,CC(C)(CCC(=O)c1ccc(C(=N)N)cc1)C(=O)N1CCC(CC(=O)O)CC1
17,38 nM,CC(C)(C(=O)N1CCC(CC(=O)O)CC1)[C@H](NC(=O)c1ccc(C(=N)N)cc1)c1cccc(O)c1
18,38 nM,C[C@@H](NC(=O)c1ccc(C(=N)N)cc1F)C(C)(C)C(=O)N1CCC(CC(=O)O)CC1
